Measurements: patent publication US20240327387A1, “TRIAZINE DERIVATIVES FOR THE TREATMENT OF TUMOURS AND NEURODEGENERATIVE DISORDERS” (UNIVERSITA' DEGLI STUDI DI MILANO, priority 2021, published 2024)

Experiments:
PD-L1 [1] = biological target: T1, PD-L1 (Homo sapiens (Human), UniProt Q9NZQ7); assay: NMR binding assay (macromolecule-based 1D 1H NMR); settings: PD-L1 10 μM, protein:ligand 1:1 and 1:10
Target sequence in this assay (Q9NZQ7 18-134): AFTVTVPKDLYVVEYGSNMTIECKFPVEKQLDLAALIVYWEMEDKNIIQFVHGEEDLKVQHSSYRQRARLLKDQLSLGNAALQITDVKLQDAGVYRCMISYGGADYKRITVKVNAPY

PD-L1 [2] = biological target: T1, PD-L1; assay: Differential scanning calorimetry (DSC) of PD-L1; type: binding; settings: PD-L1 32 μM, ligand 32 μM
Target sequence in this assay (Q9NZQ7 18-134): as above

hPD1/hPD-L1 interaction = hPD1/hPD-L1 interaction (Homo sapiens (Human), UniProt Q9NZQ7); assay: HTRF assay of PD-1/PD-L1 interaction; type: binding
hPD1/hPD-L1 interaction, sequence (Q9NZQ7 19-238): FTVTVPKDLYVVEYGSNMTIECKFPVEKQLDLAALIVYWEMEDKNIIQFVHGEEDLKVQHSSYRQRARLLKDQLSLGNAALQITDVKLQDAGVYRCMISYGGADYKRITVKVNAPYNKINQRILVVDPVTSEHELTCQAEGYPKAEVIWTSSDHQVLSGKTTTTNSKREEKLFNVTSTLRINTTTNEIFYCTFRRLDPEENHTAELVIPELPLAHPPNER

PD-L1 [3] = biological target: T1, PD-L1; settings: PD-L1 versus PD-1
Target sequence in this assay (Q9NZQ7 19-290): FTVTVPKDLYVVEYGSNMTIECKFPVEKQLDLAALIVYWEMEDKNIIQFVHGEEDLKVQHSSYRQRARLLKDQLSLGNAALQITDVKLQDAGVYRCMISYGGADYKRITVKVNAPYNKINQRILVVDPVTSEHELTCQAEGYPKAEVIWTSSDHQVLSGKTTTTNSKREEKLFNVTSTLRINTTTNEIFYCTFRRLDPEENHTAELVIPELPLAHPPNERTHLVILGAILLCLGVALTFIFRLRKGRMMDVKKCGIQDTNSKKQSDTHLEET

`COc1nc(OCc2cccc(-c3ccccc3)c2C)ccc1CNCCNC(C)=O` [BMS202] was tested, and the “formation of the ligand-PD-L1 complex (1D 1H NMR signal changes)” value (PD-L1 [1]) was “decrease in the intensity of the free protein signals”, the “change in the Tm of the protein (ΔTm)” value (PD-L1 [2]) was 6.5 °C and the “Tm of PD-L1 in the presence of ligand” value (PD-L1 [2]; no ligand Tm 46.5 (±0.5)) was 53.0 (±0.5) ° C.
`CC(=O)NCCNc1ncnc(OCc2cccc(-c3ccccc3)c2C)n1` [Compound 4] was tested, and the IC50 (hPD1/hPD-L1 interaction; HTRF) was 0.115 µM, the IC50 (hPD1/hPD-L1 interaction; HTRF, Table 1) was 0.115 ± 0.024 µM and the specific binding (PD-L1 [3]) was “capable of specifically binding PD-L1 and not PD-1”. The “formation of the ligand-PD-L1 complex (1D 1H NMR signal changes)” value (PD-L1 [1]) was “formation of the compound 4-PD-L1 complex”.
For `COC(=O)[C@H](CO)Nc1ncnc(OCc2cccc(-c3ccccc3)c2C)n1` [Compound 76], the IC50 (hPD1/hPD-L1 interaction; Table 2) was 0.692 µM.
For `Cc1c(COc2ncnc(N[C@@H](CO)C(=O)O)n2)cccc1-c1ccccc1` [Compound 77], the IC50 (hPD1/hPD-L1 interaction; Table 2) was greater than 10 µM.
Work on `CC(=O)NCCNc1ncnc(NCc2cccc(-c3ccccc3)c2C)n1` [Compound 80] yielded an IC50 (hPD1/hPD-L1 interaction; Table 2) greater than 10 µM.
`Cc1c(CNc2ncnc(NCCNS(C)(=O)=O)n2)cccc1-c1ccccc1` [Compound 81] was tested, and the IC50 (hPD1/hPD-L1 interaction; Table 2) was greater than 10 µM.
`COC(=O)[C@H](CO)Nc1ncnc(NCc2cccc(-c3ccccc3)c2C)n1` [Compound 82] gave an IC50 (hPD1/hPD-L1 interaction; Table 2) greater than 10 µM.
`Cc1c(CNc2ncnc(N[C@@H](CO)C(=O)O)n2)cccc1-c1ccccc1` [Compound 83] was tested, and the IC50 (hPD1/hPD-L1 interaction; Table 2) was greater than 10 µM.
For `CC(=O)NCCNc1ncnc(NCc2cccc(-c3ccc4c(c3)OCCO4)c2C)n1` [Compound 84], the IC50 (hPD1/hPD-L1 interaction; Table 2) was greater than 10 µM.
Compound `Cc1c(CNc2ncnc(NCCNS(C)(=O)=O)n2)cccc1-c1ccc2c(c1)OCCO2` [Compound 85] has an IC50 (hPD1/hPD-L1 interaction; Table 2) greater than 10 µM.
